Measurements from ChEMBL document CHEMBL1159267, “Barceloneic acid A, a new farnesyl-protein transferase inhibitor from a Phoma species” (J Nat Prod, 1995).
Calls of active or inactive are those of the source. The calls are words filed in the database; no cut-off is given here.

Molecular target: T1, Protein farnesyltransferase (Homo sapiens, UniProt P49354+P49356)
Assay: Inhibition of human recombinant FPTase by Ras farnesyl-protein-transferase assay
Type: protein-complex assay

Question: Which IC50 does the source give for `COc1cc(O)c(Oc2cc(C)cc(O)c2C(=O)O)c(CO)c1` [BARCELONEIC ACID A] here?
Answer: 40 µM

Molecular target: T1, Protein farnesyltransferase
Assay: Inhibition of human recombinant FPTase up to ~300 uM by Ras farnesyl-protein-transferase assay
Type: protein-complex assay

Question: For `COC(=O)c1c(OC)cc(C)cc1Oc1c(CO)cc(OC)cc1OC`, which Activity is on record?
Answer: inactive

Question: Which Activity does the source give for `COc1cc(O)c(Oc2cc(C)cc(O)c2C(=O)O)c(C(=O)O)c1` here?
Answer: inactive

Question: Which Activity does the source give for `COc1cc(CO)c(Oc2cc(C)cc(OC)c2C(=O)O)c(OC)c1` here?
Answer: inactive

Question: For `COc1cc(O)c2c(c1)COC(=O)c1c(O)cc(C)cc1O2`, which Activity is on record?
Answer: inactive

Question: `Cc1cc(O)c(C(=O)O)c(O)c1` was tested. Which Activity did it give?
Answer: inactive

Question: `COc1cc(CO)c(Oc2cc(C)cc(O)c2C(=O)O)c(OC)c1` was tested. Which Activity did it give?
Answer: inactive
